Among the data in patent publication US20260062422A1 (Halda Therapeutics OpCo, Inc., priority 2022, published 2026) are GI50 values, retold here.

The subject of one test is T47D cells. The test can be described thus: Cellular growth inhibition assay for T47D cells, CellTiter-Glo. The test is classed as cell-based, human. Conditions: 72 hours treatment, CellTiter-Glo 2.0 cell viability. In short, it runs like this: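 Cells are plated at 3000/well and allowed 24 h before treatment. Test compound in medium containing 0.5% DMSO is then added, with DMSO-only wells as negative control, and plates are incubated 72 h at 37 °C. ATP luminescence (CellTiter-Glo 2.0) is then fitted to four parameters to derive GI50.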
In general terms: In ATP-based viability assays light output follows the ATP content of the culture.

Test [1] relates to T-Rex 293 cell line SC3 cells having increased expression of androgen receptor protein due to exposure to doxycycline. Kind of test: Cellular growth inhibition, T-Rex 293 SC3 cells with doxycycline (androgen receptor induced), CellTiter-Glo. It counts as cell-based. The note with it: T-Rex 293 SC3 cells with 10 ng/mL doxycycline (increased androgen receptor expression). In short, it runs like this: (§1)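 GI50 came from a four-parameter fit of CellTiter-Glo 2.0 luminescence after 72 h compound exposure (0.5% DMSO, 37 °C), dosing 24 h post-seeding. SC3 clone cells (2500/well), transfected with wild-type androgen receptor, grew in charcoal-stripped serum medium lacking phenol red, induced with 10 ng/mL doxycycline or left uninduced.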

Test [2] concerns T-Rex 293 cell line SC3 cells lacking increased expression of androgen receptor protein. The test can be described thus: Cellular growth inhibition, T-Rex 293 SC3 cells without doxycycline, CellTiter-Glo. It counts as cell-based. Conditions: T-Rex 293 SC3 cells not exposed to doxycycline, CellTiter-Glo 2.0. In short, it runs like this:
as §1

A further test deals with VCaP cells. Kind of test: Cellular growth inhibition assay for VCaP cells, CellTiter-Glo. The test is classed as cell-based, human. The note with it: 72 hours treatment, CellTiter-Glo 2.0. In short, it runs like this: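 GI50 values come from four-parameter curve fits of luminescence data normalized to a zero baseline. Compound, in medium with 0.5% DMSO, was added one day after plating and left for 72 h before CellTiter-Glo 2.0 addition.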

In the case of `Cc1sc2c(c1C)C(c1ccc(C[C@H]3CCCN(c4ncc(C(=O)N[C@H]5C(C)(C)[C@H](Oc6ccc(C#N)c(Cl)c6)C5(C)C)cn4)C3)cc1)=N[C@@H](Cc1ncco1)c1nnc(C)n1-2` [Compound I-297], the GI50 – broadly, the concentration at which growth is held to half of that of the control – is below 500 nM in the test on T47D cells (Homo sapiens, T47D, 72 h); below 500 nM in test [1] (72 h); 500 to 1500 nM in test [2] (72 h); below 500 nM with VCaP cells (Homo sapiens, VCaP, 72 h).

`Cc1sc2c(c1C)C(c1ccc(C(=O)N3CCN(Cc4ncc(C(=O)N[C@H]5C(C)(C)[C@H](Oc6ccc(C#N)c(Cl)c6)C5(C)C)cn4)CC3)cc1)=N[C@@H](Cc1ncco1)c1nnc(C)n1-2` [Compound I-327]: the GI50 in the test on T47D cells (Homo sapiens, T47D, 72 h) was above 3000 nM; in test [1] (72 h), above 3000 nM; in test [2] (72 h), above 3000 nM; with VCaP cells (Homo sapiens, VCaP, 72 h), above 3000 nM.

Take `Cc1sc2c(c1C)C(c1ccc([C@H]3C[C@H]([C@@H]4CCCN(c5ncc(C(=O)N[C@H]6C(C)(C)[C@H](Oc7ccc(C#N)c(Cl)c7)C6(C)C)cn5)C4)C3)cc1)=N[C@@H](Cc1ncco1)c1nnc(C)n1-2` [Compound I-422]: the GI50 in the test with T47D cells (Homo sapiens, T47D, 72 h) was below 500 nM; in test [1] (72 h), below 500 nM; in test [2] (72 h), above 3000 nM; with VCaP cells (Homo sapiens, VCaP, 72 h), below 500 nM.

On to `Cc1sc2c(c1C)C(c1ccc(CCCOC3CCN(c4ncc(C(=O)N[C@H]5C(C)(C)[C@H](Oc6ccc(C#N)c(Cl)c6)C5(C)C)cn4)CC3)cc1)=N[C@@H](Cc1cccnc1)c1nnc(C)n1-2` [Compound I-214], for which the GI50 is below 500 nM with T47D cells (Homo sapiens, T47D, 72 h); below 500 nM in test [1] (72 h); below 500 nM in test [2] (72 h); below 500 nM in the test with VCaP cells (Homo sapiens, VCaP, 72 h).

`Cc1sc2c(c1C)C(c1ccc(O[C@@H]3CC[C@@]4(CCCN(c5ncc(C(=O)N[C@H]6C(C)(C)[C@H](Oc7ccc(C#N)c(Cl)c7)C6(C)C)cn5)C4)C3)cc1)=N[C@@H](Cc1ncco1)c1nnc(C)n1-2` [Compound I-201]: the GI50 is below 500 nM in the test on T47D cells (Homo sapiens, T47D, 72 h); below 500 nM in test [1] (72 h); above 3000 nM in test [2] (72 h); below 500 nM in the test on VCaP cells (Homo sapiens, VCaP, 72 h).

For the compound `Cc1sc2c(c1C)C(c1ccc(CNC(=O)C3CCN(c4ncc(C(=O)N[C@H]5C(C)(C)[C@H](Oc6ccc(C#N)c(Cl)c6)C5(C)C)cn4)CC3)cc1)=N[C@@H](Cc1ncco1)c1nnc(C)n1-2` [Compound I-263], the GI50 with T47D cells (Homo sapiens, T47D, 72 h) is below 500 nM; in test [1] (72 h), below 500 nM; in test [2] (72 h), 1500 to 3000 nM; in the test on VCaP cells (Homo sapiens, VCaP, 72 h) it was below 500 nM.

`Cc1sc2c(c1C)C(c1ccc(CC3CC(OC4CCN(c5ncc(C(=O)N[C@H]6C(C)(C)[C@H](Oc7ccc(C#N)c(Cl)c7)C6(C)C)cn5)CC4)C3)cc1)=N[C@@H](C)c1nnc(C)n1-2` (stereo partly drawn) [Compound I-445]: the GI50 with T47D cells (Homo sapiens, T47D, 72 h) was below 500 nM; in test [1] (72 h), below 500 nM; in test [2] (72 h) it was above 3000 nM; with VCaP cells, below 500 nM.

For `CCNC(=O)C[C@@H]1N=C(c2ccc(N3CC(OC4CCN(c5ncc(C(=O)N[C@H]6C(C)(C)[C@H](Oc7ccc(C#N)c(Cl)c7)C6(C)C)cn5)CC4)C3)cc2)c2c(sc(C)c2C)-n2c(C)nnc21` [Compound I-117], the GI50 with T47D cells (Homo sapiens, T47D, 72 h) was below 500 nM; in test [1] (72 h), below 500 nM; in test [2] (72 h) it was 500 to 1500 nM; with VCaP cells (Homo sapiens, VCaP, 72 h), below 500 nM.

Consider `Cc1sc2c(c1C)C(c1ccc(-c3scnc3OC3CCN(c4ncc(C(=O)N[C@H]5C(C)(C)[C@H](Oc6ccc(C#N)c(Cl)c6)C5(C)C)cn4)CC3)cc1)=N[C@@H](Cc1ncco1)c1nnc(C)n1-2` [Compound I-390], for which the GI50 in the test with T47D cells (Homo sapiens, T47D, 72 h) was above 3000 nM; in test [1] (72 h), below 500 nM; in test [2] (72 h) it was above 3000 nM; with VCaP cells (Homo sapiens, VCaP, 72 h) it was below 500 nM.

For the compound `Cc1sc2c(c1C)C(c1ccc([C@H]3C[C@@H](C[C@@H]4CCCN(c5ncc(C(=O)N[C@H]6C(C)(C)[C@H](Oc7ccc(C#N)c(Cl)c7)C6(C)C)cn5)C4)C3)cc1)=N[C@@H](Cc1ncco1)c1nnc(C)n1-2` [Compound I-401], the GI50 (with T47D cells; in test [1] (72 hours); in test [2] (72 hours); with VCaP cells) was above 3000 nM each time.

For `Cc1sc2c(c1C)C(c1ccc(O[C@H]3C[C@]4(CCCN(c5ncc(C(=O)N[C@H]6C(C)(C)[C@H](Oc7ccc(C#N)c(Cl)c7)C6(C)C)cn5)C4)C3)cc1)=N[C@@H](Cc1ncco1)c1nnc(C)n1-2` [Compound I-194], the GI50 in the test on T47D cells (Homo sapiens, T47D, 72 h) was 500 to 1500 nM; in test [1] (72 h) it was below 500 nM; in test [2] (72 h), below 500 nM; with VCaP cells (Homo sapiens, VCaP, 72 h), below 500 nM.

On to `Cc1sc2c(c1C)C(c1ccc(C3CC(C4CCN(c5cnc(C(=O)N[C@H]6C(C)(C)[C@H](Oc7ccc(C#N)c(Cl)c7)C6(C)C)cn5)CC4)C3)cc1)=NC(C)c1nnc(C)n1-2` (stereo partly drawn) [Compound I-469], for which the GI50 in the test with T47D cells (Homo sapiens, T47D, 72 h) was below 500 nM; in test [1] (72 hours), below 500 nM; in test [2] (72 hours), 500 to 1500 nM; in the test with VCaP cells, below 500 nM.

Turning to `Cc1sc2c(c1C)C(c1ccc(CN3CC4(CCCN(c5ncc(C(=O)N[C@H]6C(C)(C)[C@H](Oc7ccc(C#N)c(Cl)c7)C6(C)C)cn5)C4)C3)cc1)=N[C@@H](Cc1ncco1)c1nnc(C)n1-2` [Compound I-148], the GI50 with T47D cells (Homo sapiens, T47D, 72 h) is below 500 nM; in test [1] (72 h), below 500 nM; in test [2] (72 h), below 500 nM; in the test on VCaP cells (Homo sapiens, VCaP, 72 h), below 500 nM.

For `Cc1sc2c(c1C)C(c1ccc(C[C@H]3C[C@]4(CCCN(c5ncc(C(=O)N[C@H]6C(C)(C)[C@H](Oc7ccc(C#N)c(Cl)c7)C6(C)C)cn5)C4)C3)cc1)=N[C@@H](Cc1ncco1)c1nnc(C)n1-2` [Compound I-157], the GI50 was 500 to 1500 nM with T47D cells (Homo sapiens, T47D, 72 h); below 500 nM in test [1] (72 h); above 3000 nM in test [2] (72 h); 500 to 1500 nM in the test on VCaP cells (Homo sapiens, VCaP, 72 h).

In the case of `Cc1sc2c(c1C)C(c1ccc(CCC(=O)N3CCN(c4ncc(C(=O)N[C@H]5C(C)(C)[C@H](Oc6ccc(C#N)c(Cl)c6)C5(C)C)cn4)CC3)cc1)=N[C@@H](Cc1ncco1)c1nnc(C)n1-2` [Compound I-287], the GI50 in the test on T47D cells (Homo sapiens, T47D, 72 h) is below 500 nM; in test [1] (72 h), below 500 nM; in test [2] (72 h), below 500 nM; with VCaP cells (Homo sapiens, VCaP, 72 h), below 500 nM.

For `Cc1sc2c(c1C)C(c1ccc(O[C@@H]3CO[C@@]4(CCCN(c5ncc(C(=O)N[C@H]6C(C)(C)[C@H](Oc7ccc(C#N)c(Cl)c7)C6(C)C)cn5)C4)C3)cc1)=N[C@@H](Cc1ncco1)c1nnc(C)n1-2` [Compound I-188], the GI50 in the test on T47D cells (Homo sapiens, T47D, 72 h) was below 500 nM; in test [1] (72 h), below 500 nM; in test [2] (72 h), below 500 nM; in the test on VCaP cells (Homo sapiens, VCaP, 72 h), below 500 nM.

`Cc1sc2c(c1C)C(c1ccc(CCCOC3CCN(c4ncc(C(=O)N[C@H]5C(C)(C)[C@H](Oc6ccc(C#N)c(Cl)c6)C5(C)C)cn4)CC3)cc1)=C[C@H](Cc1ccncn1)c1nnc(C)n1-2` [Compound I-375]: the GI50 in the test on T47D cells (Homo sapiens, T47D, 72 h) is below 500 nM; in test [1] (72 h), below 500 nM; in test [2] (72 h) it was below 500 nM; in the test on VCaP cells (Homo sapiens, VCaP, 72 h), below 500 nM.

On to `Cc1sc2c(c1C)C(c1ccc(N3CC(OC4CCN(c5ncc(C(=O)N[C@H]6C(C)(C)[C@H](Oc7ccc(C#N)c(Cl)c7)C6(C)C)cn5)CC4)C3)cc1)=N[C@@H](Cc1ncco1)c1nnc(C)n1-2` [Compound I-206, N-[3-(3-chloro-4-cyano-phenoxy)-2,2,4,4-tetramethyl-cyclobutyl]-2-[4-[1-[4-[(9S)-4,5,13-trimethyl-9-(oxazol-2-ylmethyl)-3-thia-1,8,11,12-tetrazatricyclo[8.3.0.02,6]trideca-2(6),4,7,10,12-pentaen-7-yl]phenyl]azetidin-3-yl]oxy-1-piperidyl]pyrimidine-5-carboxamide], for which the GI50 in the test with T47D cells (Homo sapiens, T47D, 72 h) is below 500 nM; in test [1] (72 h), below 500 nM; in test [2] (72 h), below 500 nM; in the test on VCaP cells (Homo sapiens, VCaP, 72 h), below 500 nM.
